Assay results from patent publication US7045532B2 (Millennium Pharmaceuticals, Inc., priority 1999, dated 2006).

Key:
ACE (Sigma, A2580) = target: T1, ACE (Sigma, A2580) (Sus scrofa, UniProt F1RRW5); test: ACE enzymatic activity assay; format: biochemical, porcine; settings: Ki class; compounds tested in 5% DMSO, 12 concentrations
T1 construct: ACE from porcine kidney; purchased Sigma A2580; host or cells: porcine kidney
T1 sequence (F1RRW5 34-1309): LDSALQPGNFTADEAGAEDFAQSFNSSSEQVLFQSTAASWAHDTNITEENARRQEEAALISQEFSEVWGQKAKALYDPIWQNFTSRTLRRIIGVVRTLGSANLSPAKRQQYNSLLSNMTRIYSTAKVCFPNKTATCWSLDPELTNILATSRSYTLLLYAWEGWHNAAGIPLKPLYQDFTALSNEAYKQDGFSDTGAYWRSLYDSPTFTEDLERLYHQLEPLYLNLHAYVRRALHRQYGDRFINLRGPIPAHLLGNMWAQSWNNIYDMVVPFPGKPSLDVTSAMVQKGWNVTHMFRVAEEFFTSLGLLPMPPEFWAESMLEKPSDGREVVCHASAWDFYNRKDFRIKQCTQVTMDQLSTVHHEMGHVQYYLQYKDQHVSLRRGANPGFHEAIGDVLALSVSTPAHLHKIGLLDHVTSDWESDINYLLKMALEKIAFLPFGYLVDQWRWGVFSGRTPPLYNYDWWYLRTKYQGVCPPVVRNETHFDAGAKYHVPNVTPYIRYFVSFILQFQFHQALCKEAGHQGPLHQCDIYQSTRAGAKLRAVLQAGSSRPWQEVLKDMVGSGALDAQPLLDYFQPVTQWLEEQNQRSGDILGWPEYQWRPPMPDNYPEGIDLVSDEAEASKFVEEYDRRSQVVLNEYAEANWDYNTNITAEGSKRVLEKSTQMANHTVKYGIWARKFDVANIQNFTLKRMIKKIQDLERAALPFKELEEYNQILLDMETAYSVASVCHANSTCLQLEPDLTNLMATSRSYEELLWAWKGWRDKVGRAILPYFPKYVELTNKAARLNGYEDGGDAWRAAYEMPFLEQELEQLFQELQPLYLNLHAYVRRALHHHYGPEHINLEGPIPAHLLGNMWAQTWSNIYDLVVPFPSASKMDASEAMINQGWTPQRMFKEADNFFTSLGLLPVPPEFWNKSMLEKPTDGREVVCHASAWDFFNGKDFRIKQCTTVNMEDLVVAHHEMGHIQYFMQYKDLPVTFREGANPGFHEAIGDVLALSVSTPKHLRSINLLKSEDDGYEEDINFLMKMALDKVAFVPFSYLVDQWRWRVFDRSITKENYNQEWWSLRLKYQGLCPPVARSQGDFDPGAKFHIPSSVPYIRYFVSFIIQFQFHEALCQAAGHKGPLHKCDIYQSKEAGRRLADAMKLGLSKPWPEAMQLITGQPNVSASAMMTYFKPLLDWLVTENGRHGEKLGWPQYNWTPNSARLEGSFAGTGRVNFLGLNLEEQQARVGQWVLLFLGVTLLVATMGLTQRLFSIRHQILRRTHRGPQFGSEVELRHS
Outline: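 ACE (1 nM final) in 50 mM HEPES, 300 mM NaCl, 0.01% Brij-35, pH 7.5, with compound in 5% DMSO at 12 concentrations, 25 °C. Substrate cleavage run ~30 min, stopped with EDTA; fluorescence read at excitation 320 nm, emission 405 nm.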

ACE-2 [1] = target: ACE-2 (Rattus norvegicus, UniProt Q5EGZ1); test: ACE-2 Competitive Substrate Assay, rat ACE-2; format: biochemical; settings: Ki class; compounds tested in 5% DMSO, 12 concentrations
ACE-2 (Rattus norvegicus, UniProt Q5EGZ1), sequence (Q5EGZ1 18-805): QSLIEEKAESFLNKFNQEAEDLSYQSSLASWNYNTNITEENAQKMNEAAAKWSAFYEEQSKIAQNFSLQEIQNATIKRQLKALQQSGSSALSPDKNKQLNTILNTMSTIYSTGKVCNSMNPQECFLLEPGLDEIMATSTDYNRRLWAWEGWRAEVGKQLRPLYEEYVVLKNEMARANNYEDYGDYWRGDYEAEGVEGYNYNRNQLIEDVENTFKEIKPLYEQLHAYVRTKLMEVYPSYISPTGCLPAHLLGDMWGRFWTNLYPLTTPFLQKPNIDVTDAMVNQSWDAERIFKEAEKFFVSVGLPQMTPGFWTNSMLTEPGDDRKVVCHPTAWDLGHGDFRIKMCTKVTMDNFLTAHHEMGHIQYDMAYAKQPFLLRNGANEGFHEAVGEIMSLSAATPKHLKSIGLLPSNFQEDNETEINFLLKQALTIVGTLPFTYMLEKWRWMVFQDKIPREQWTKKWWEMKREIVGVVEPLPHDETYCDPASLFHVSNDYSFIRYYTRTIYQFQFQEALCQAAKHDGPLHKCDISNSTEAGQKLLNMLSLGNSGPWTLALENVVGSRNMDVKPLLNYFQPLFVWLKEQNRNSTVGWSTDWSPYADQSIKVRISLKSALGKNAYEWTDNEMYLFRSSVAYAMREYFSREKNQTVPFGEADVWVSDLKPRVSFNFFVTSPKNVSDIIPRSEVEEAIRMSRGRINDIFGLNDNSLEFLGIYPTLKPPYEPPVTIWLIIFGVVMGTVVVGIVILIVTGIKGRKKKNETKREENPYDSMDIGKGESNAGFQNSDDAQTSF
Protocol: (§1) ACE-2 enzymatic activity was assayed in microtitre plates by the following procedure. The ACE-2 assay buffer used contained 50 mM MES (Boehringer-Mannheim), 300 mM NaCl (Sigma) and 0.01% Brij-35 (Pierce Chemical Co.) at pH 6.5.
(§2) Reactions were mixed and incubated at 25° C.
The activity of the test compounds was investigated using the procedure outlined above. The compounds were tested in 5% DMSO. Enzyme activity was measured at 12 compound concentrations.

ACE-2 [2] = target: T2, ACE-2 (Homo sapiens, UniProt Q9BYF1); test: ACE-2 Competitive Substrate Assay (ACS Assay); format: biochemical; settings: Ki class; compounds tested in 5% DMSO, 12 concentrations; read-out: Human ACE-2 Activity
T2 construct: a stop codon inserted after the serine immediately preceding the transmembrane domain; made in house; host or cells: CHO K1 cells (transient transfection, purified from conditioned medium)
T2 sequence (Q9BYF1 18-740 limits assumed): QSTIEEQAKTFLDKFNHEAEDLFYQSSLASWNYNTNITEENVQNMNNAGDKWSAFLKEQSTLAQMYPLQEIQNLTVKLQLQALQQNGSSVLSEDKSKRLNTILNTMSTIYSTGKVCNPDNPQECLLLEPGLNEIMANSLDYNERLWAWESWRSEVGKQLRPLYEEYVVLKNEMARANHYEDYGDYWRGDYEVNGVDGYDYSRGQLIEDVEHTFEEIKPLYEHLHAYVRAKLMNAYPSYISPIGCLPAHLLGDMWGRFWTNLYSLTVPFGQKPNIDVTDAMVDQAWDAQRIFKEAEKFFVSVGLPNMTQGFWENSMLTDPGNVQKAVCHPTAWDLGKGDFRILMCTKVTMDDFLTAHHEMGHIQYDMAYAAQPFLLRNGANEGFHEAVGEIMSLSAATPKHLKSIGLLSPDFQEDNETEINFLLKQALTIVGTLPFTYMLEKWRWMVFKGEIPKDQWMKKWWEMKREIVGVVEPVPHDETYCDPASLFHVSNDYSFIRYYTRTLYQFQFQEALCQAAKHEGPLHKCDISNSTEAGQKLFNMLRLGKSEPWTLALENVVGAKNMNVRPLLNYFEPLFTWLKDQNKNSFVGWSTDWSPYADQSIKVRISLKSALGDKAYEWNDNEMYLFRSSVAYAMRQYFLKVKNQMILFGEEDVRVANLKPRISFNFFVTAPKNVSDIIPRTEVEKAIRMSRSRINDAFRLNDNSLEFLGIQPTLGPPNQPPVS

Carboxypeptidase A = target: T3, Carboxypeptidase A (Bos taurus, UniProt P00730); test: Carboxypeptidase A activity assay; format: biochemical; settings: Ki class; compounds tested in 5% DMSO, 12 concentrations
T3 sequence (P00730 111-419): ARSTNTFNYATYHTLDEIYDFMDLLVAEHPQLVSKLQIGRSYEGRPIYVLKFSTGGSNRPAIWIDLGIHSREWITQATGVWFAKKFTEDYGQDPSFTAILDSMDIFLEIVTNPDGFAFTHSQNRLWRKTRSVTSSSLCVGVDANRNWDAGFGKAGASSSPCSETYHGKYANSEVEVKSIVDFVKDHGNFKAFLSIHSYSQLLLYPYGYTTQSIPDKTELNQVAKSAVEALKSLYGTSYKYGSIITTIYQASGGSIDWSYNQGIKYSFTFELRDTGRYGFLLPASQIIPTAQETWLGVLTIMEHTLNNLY
Outline: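 Bovine carboxypeptidase A activity followed at 328 nm in 5% DMSO, reaction stopped with EDTA. Activity measured at 12 compound concentrations. Ki derived from apparent Ki as Ki=Kiapp/(1+[S]/Km).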

[3] = Effect on appetite: food consumption in ICR mice; settings: 3 mg/kg oral
[4] = tested on: COc1ccc2c(CC(=O)N[C@@H](C)C(=O)N3CCC[C@H]3C(=O)N[C@@H](CCCCNc3ccc([N+](=O)[O-])cc3[N+](=O)[O-])C(=O)O)cc(=O)oc2c1; test: purified protein, by the assay type; settings: other: fluorogenic substrate of ACE-2, pH 6.5, 25° C.
Protocol: as §1, §2

[5] = tested on: COc1ccc2c(CC(=O)N[C@@H](Cc3ccc(O)cc3)C(=O)N[C@H](C(=O)N[C@@H](C)C(=O)N[C@@H](CC(=O)O)C(=O)N[C@@H](C)C(=O)N3CCC[C@H]3C(=O)N[C@@H](CCCCNc3ccc([N+](=O)[O-])cc3[N+](=O)[O-])C(=O)O)C(C)C)cc(=O)oc2c1; test: purified protein, by the assay type; settings: other: fluorogenic substrate of ACE-2, pH 6.5, 25° C.
Protocol: as §1, §2

**Q.** Which Ki (ACE (Sigma, A2580)) does the source give for `CC(C)CC(N[C@@H](Cc1c[nH]cn1)C(=O)NCC(=O)O)C(=O)O` (stereo partly shown) [FD, 2-[1-(Carboxymethyl-carbamoyl)-2-(1H-imidazol-4-yl)-ethylamino]4-methyl-pentanoic acid] here?
**A.** The Ki was less than 10 µM.

**Q.** What about the Ki (ACE-2 [1]) of the same molecule?
**A.** The Ki was greater than 0.5 µM.

**Q.** And the Ki (ACE-2 [2])?
**A.** The Ki was greater than 0.5 µM.

**Q.** And the Ki (Carboxypeptidase A)?
**A.** The Ki was greater than 50 µM.

**Q.** For `CC(C)CC(N[C@@H](CN(C)c1ccccc1)C(=O)O)C(=O)O` (stereo partly shown) [FS, 2-[1-Carboxy-2-(methyl-phenyl-amino)-ethylamino]-4-methyl-pentanoic acid], which Ki (ACE (Sigma, A2580)) is on record?
**A.** The Ki was greater than 50 µM.

**Q.** What about the Ki (ACE-2 [1]) of the same molecule?
**A.** Its Ki is less than 0.1 µM.

**Q.** And the Ki (ACE-2 [2])?
**A.** The Ki was greater than 0.5 µM.

**Q.** And the Ki (Carboxypeptidase A)?
**A.** The Ki was 10 to 50 µM.

**Q.** With `CC(C)CC(N[C@H](CN(C)c1ccccc1)C(=O)O)C(=O)O` (stereo partly shown) [FT, 2-[1-Carboxy-2-(methyl-phenyl-amino)-ethylamino]-4-methyl-pentanoic acid] as the molecule, how does the Ki (ACE (Sigma, A2580)) read?
**A.** The Ki was greater than 50 µM.

**Q.** And the Ki (ACE-2 [1])?
**A.** The Ki was greater than 0.5 µM.

**Q.** What about the Ki (ACE-2 [2]) of the same molecule?
**A.** Its Ki is greater than 0.5 µM.

**Q.** What about the Ki (Carboxypeptidase A) of the same molecule?
**A.** The Ki was greater than 50 µM.

**Q.** With `CC(C)CC(N[C@@H](Cc1cncn1Cc1ccc(C(F)(F)F)cc1)C(=O)O)C(=O)O` (stereo partly shown) [GI, 2-[1-Carboxy-2-[3-(4-trifluoromethyl-benzyl)-imidazol-4-yl]-ethylamino]-4-methyl-pentanoic acid] as the molecule, how does the Ki (ACE (Sigma, A2580)) read?
**A.** Its Ki is greater than 50 µM.

**Q.** What about the Ki (ACE-2 [1]) of the same molecule?
**A.** The Ki was less than 0.1 µM.

**Q.** And the Ki (ACE-2 [2])?
**A.** Its Ki is less than 0.1 µM.

**Q.** What about the Ki (Carboxypeptidase A) of the same molecule?
**A.** The Ki was 10 to 50 µM.

**Q.** With `CC(C)CC(N[C@@H](Cc1cncn1Cc1ccc(C(F)(F)F)cc1)C(=O)O)C(=O)O` (stereo partly shown) [GJ, 2-[1-Carboxy-2-[3-(4-trifluoromethyl-benzyl)-3H-imidazol-4-yl]-ethylamino]4-methyl-pentanoic acid] as the molecule, how does the Ki (ACE (Sigma, A2580)) read?
**A.** The Ki was 10 to 50 µM.

**Q.** What about the Ki (ACE-2 [1]) of the same molecule?
**A.** Its Ki is greater than 0.5 µM.

**Q.** And the Ki (ACE-2 [2])?
**A.** The Ki was greater than 0.5 µM.

**Q.** What about the Ki (Carboxypeptidase A) of the same molecule?
**A.** Its Ki is 10 to 50 µM.

**Q.** With `CC(C)C[C@H](N[C@@H](C(=O)O)c1ccccc1)C(=O)O` [R, 2-[(Carboxy-phenyl-methyl)-amino]-4-methyl-pentanoic acid] as the molecule, how does the Ki (ACE (Sigma, A2580)) read?
**A.** The Ki was greater than 50 µM.

**Q.** What about the Ki (ACE-2 [1]) of the same molecule?
**A.** The Ki was greater than 0.5 µM.

**Q.** What about the Ki (ACE-2 [2]) of the same molecule?
**A.** Its Ki is greater than 0.5 µM.

**Q.** And the Ki (Carboxypeptidase A)?
**A.** The Ki was greater than 50 µM.

**Q.** With `CC(C)C[C@H](N[C@H](CC(=O)O)C(=O)O)C(=O)O` [U, 2-(1-Carboxy-3-methyl-butylamino)-succinic acid] as the molecule, how does the Ki (ACE (Sigma, A2580)) read?
**A.** Its Ki is greater than 50 µM.

**Q.** What about the Ki (ACE-2 [1]) of the same molecule?
**A.** The Ki was greater than 0.5 µM.

**Q.** And the Ki (ACE-2 [2])?
**A.** Its Ki is greater than 0.5 µM.

**Q.** And the Ki (Carboxypeptidase A)?
**A.** Its Ki is greater than 50 µM.

**Q.** With `CC(N)Cc1ccccc1` (stereo not shown) [amphetamine, reference compound] as the molecule, how does the cumulative food consumption ([3]; one hour) read?
**A.** The cumulative food consumption was “about 0.18±0.05 g”.

**Q.** And the cumulative food consumption ([3]; six hours)?
**A.** The cumulative food consumption was “about 3.10±0.03 g”.

**Q.** Which Km [4] does the source give for ACE-2 (Homo sapiens) here?
**A.** Its Km is 340 µM.

**Q.** And the kcat/Km [4]?
**A.** Its kcat/Km is 230000 M⁻¹ s⁻¹.

**Q.** And the Km [5]?
**A.** Its Km is 130 µM.

**Q.** And the kcat/Km [5]?
**A.** Its kcat/Km is 42000 M⁻¹ s⁻¹.
